As usually defined, the IC50 is the concentration that inhibits the measured activity by half. The low end stands for inhibition by little substance, the high end for a need for much substance.

The assay deals with human IK (Homo sapiens (Human), UniProt O15554). Description: Inhibition of IK channels expressed in HEK293 cells, thallium (I) sensitive FLIPR assay. The note with it: HEK293 cells over-expressing human IK; Tl+-sensitive BTC fluorescence (FLIPR); inhibition of activity induced by Ca2+-ionophore A23187. Type of assay: cell-based. The procedure: Following experiment determines the ability of a test compound to inhibit the activity of IK channels heterologously expressed in human HEK293 cells, and was used as the primary screen. The ability is determined as per cent inhibition of the activity induced by addition of the Ca^2+-ionophore A23187 (considered a maximum response). The activity is determined using a standard thallium (I) sensitive assay, e.g. using a fluorometric method in a Fluorescent Image Plate Reader (FLIPR) as described below in more detail.
Full concentration/response curves are generated and IC50 values are calculated based on the degree of inhibition of the maximum response. IC50 values (Inhibitory Concentration) represent the concentration of the test substance at which 50% of the maximum channel activity is inhibited.
Human HEK293 cells over-expressing human IK are grown in culture medium (DMEM supplemented with 10% foetal bovine serum), in polystyrene culture flasks ([…]) in a humidified atmosphere of 5% CO2 in air, at 37° C. Cell confluence should be 80-90% on day of plating. Cells are rinsed with 4 mL of PBS (phosphate buffered saline) and incubated 2 min with 1 mL of Trypsin-EDTA. After addition of 25 mL of culture medium cells are re-suspended by trituration with a 25 mL pipette.
The cells are seeded at a density of ˜3×10^6 cells/mL (25 μL/well) in black-walled, clear bottom, 384-well plates pre-treated with 0.01 g/L poly-D-lysin (20 μL/well for ≧30 min). Plated cells were allowed to proliferate for 24 h before loading with dye.
BTC-AM ([…], Invitrogen) is added 25.5 μl DMSO. The BTC-AM stock solution (2 mM) is diluted to a final concentration of 2 μM in […] assay buffer (in mM: 140 Na^+-gluconate, 2.5 K^+-gluconate, 6 Ca2^+-gluconate, 1 Mg^2+ gluconate, 5 glucose, 10 HEPES, pH 7.3) containing 2 μM ouabain, 2 mM amaranth and 1 mM tartrazine.
The culture medium is aspirated from the wells, and 25 μl of the BTC-AM loading solution are added to each well. The cells are incubated at 37° C. for 60 min.
After the loading period, the Tl^+-sensitive BTC fluorescence signal is measured over time using a FLIPR.
• Temperature: Room temp. • First addition: 12 μl test or control compound after 15 sec at a rate of 30 μL/sec and starting height of 20 μL • Second addition: 12 μL stimulus buffer (Cl^− free assay buffer supplemented with 1 mM Tl2SO4, 5 μM A23187 as well as the quenchers amaranth (2 mM) and tartrazine (1 mM)) is added after an additional 3 minutes at a rate of 30 μL/sec and starting height of 30 μL • Reading intervals: First sequence—3 sec×5, 2 sec×24 and 5 sec×25 • Second sequence—1 sec×5, 2 sec×24 and 5 sec×36
Addition plates (compound plate and stimulus plate) are placed in positions 2 and 3, respectively. Cell plates are placed in position 1 and run using the “IK blocker (EtOH wash, two additions)” program. FLIPR will then take the appropriate measurements in accordance with the interval settings above. Fluorescence obtained after stimulation is corrected for the mean basal fluorescence (in Cl^− free assay buffer).
Full concentration/response curves are generated and IC50 values (“Inhibitory Concentration”, i.e. the concentration of the test substance at which 50% of the maximum channel activity is inhibited) are calculated. The responses are calculated based on peak values.
`COc1ccccc1-n1nnnc1-c1ccccc1-c1ccccc1F` [Compound 54, 5-[2-(2-Fluorophenyl)phenyl]-1-(2-methoxyphenyl)-1H-1,2,3,4-tetrazole] had a half-inhibitory concentration (IC50) of 780 nM.
In the case of `Cc1ccccc1-c1ccccc1-c1nnnn1-c1ccccc1F` [Compound 19, 1-(2-Fluorophenyl)-5-[2-(2-methylphenyl)phenyl]-1H-1,2,3,4-tetrazole] it was 510 nM.
The compound `N#CCOc1ccccc1-c1ccccc1-c1nnnn1-c1ccccc1F` [Compound 7, 2-(2-{2-[1-(2-Fluorophenyl)-1H-1,2,3,4-tetrazol-5-yl]phenyl}phenoxy)acetonitrile] showed an IC50 of 16 nM.
Turning to `c1ccc(-c2ccccc2-c2nnnn2-c2ccccc2)cc1` [Compound 65, 1-Phenyl-5-(2-phenylphenyl)-1H-1,2,3,4-tetrazole], the IC50 was 890 nM.
`FCc1ccccc1-c1ccccc1-c1nnnn1-c1ccccc1F` [Compound 33, 5-{2-[2-(Fluoromethyl)phenyl]phenyl}-1-(2-fluorophenyl)-1H-1,2,3,4-tetrazole]: the IC50 turned out to be 17 nM.
The compound `COc1ccccc1-c1ccccc1-c1nnnn1-c1ccccc1C#N` [Compound 56, 2-{5-[2-(2-Methoxyphenyl)phenyl]-1H-1,2,3,4-tetrazol-1-yl}benzonitrile] displayed an IC50 of 64 nM.

(Values after US9556132B2, “Tetrazole derivatives and their use as potassium channel modulators” (SANIONA A/S, priority 2012, dated 2017).)
